Results on one compound are retold here after article doi:10.1101/685669v2 (biorxiv, 2020).

By Ki is commonly meant the equilibrium dissociation constant of an inhibitor or competing ligand from its target. The low end stands for a stronger hold on the target, the high end for a looser hold on the target. In general, IC50 refers to the concentration needed to halve the response being measured.

What all share (test): fluorogenic peptidase assay
Common to all, as to type: biochemical

One assay deals with T1, bsClpYQ (Bacillus subtilis, UniProt P39070+P39778).
T1 sequence (P39070 2-181): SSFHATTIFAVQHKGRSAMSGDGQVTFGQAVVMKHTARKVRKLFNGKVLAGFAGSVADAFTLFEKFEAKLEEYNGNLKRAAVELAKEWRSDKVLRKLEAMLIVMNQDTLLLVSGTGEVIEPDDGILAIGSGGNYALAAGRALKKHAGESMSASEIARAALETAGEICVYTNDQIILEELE
T1 sequence (P39778 1-467): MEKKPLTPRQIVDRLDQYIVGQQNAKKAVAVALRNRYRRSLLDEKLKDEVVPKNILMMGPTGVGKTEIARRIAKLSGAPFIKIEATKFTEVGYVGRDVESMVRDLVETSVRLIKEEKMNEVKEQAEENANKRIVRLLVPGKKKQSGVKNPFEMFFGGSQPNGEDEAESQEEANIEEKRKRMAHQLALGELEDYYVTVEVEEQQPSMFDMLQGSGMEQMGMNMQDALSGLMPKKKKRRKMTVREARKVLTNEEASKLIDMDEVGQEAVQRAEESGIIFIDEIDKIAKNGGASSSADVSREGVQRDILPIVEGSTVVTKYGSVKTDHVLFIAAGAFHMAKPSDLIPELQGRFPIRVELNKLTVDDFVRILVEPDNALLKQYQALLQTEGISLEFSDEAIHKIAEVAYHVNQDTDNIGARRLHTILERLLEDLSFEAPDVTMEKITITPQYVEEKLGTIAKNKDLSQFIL
The note with it: substrate Cbz-GGL-AMC, ATP present; competitive.

Assay [1] concerns the target T2, ecClpXP (Escherichia coli, UniProt P0A6G7+P0A6H1). The following applies: substrate Suc-LY-AMC; competitive.
Assay [2] addresses T2, ecClpXP. The following applies: 0.1 mM Suc-LY-AMC; competitive.
The target of assay [3] is T3, ecClpP (Escherichia coli, UniProt P0A6G7).
T3 sequence (P0A6G7 15-207): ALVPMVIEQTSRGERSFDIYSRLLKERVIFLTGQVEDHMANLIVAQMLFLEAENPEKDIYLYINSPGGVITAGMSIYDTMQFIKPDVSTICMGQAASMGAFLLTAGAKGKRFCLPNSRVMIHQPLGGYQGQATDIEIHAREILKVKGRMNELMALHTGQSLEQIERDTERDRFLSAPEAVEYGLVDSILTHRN
For assay [4], the target named is T3, ecClpP. The source holds these as a separate data set.

T2 sequence (P0A6G7 15-207): as above
T2 sequence (P0A6H1 2-424): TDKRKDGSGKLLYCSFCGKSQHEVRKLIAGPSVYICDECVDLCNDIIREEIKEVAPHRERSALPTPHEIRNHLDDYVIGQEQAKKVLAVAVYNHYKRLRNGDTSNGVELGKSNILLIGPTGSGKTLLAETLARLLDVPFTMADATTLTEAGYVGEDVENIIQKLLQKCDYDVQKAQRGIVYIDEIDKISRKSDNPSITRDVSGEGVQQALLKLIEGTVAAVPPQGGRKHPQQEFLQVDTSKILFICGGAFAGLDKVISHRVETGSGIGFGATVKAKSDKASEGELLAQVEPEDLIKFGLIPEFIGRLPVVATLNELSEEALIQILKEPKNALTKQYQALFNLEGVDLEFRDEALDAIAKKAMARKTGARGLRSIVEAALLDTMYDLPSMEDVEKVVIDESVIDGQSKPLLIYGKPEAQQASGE

Regarding `CCCCCCc1c(O)c(Cl)cc2c1OC1(C2=O)C(Cl)=C(Cl)C(=O)N1C` (racemic) [compound 1, 5-chloro-armeniaspirol A], the values for the Ki on bsClpYQ, at ecClpXP [1] and at ecClpP [4] were 3.2 µM, 36.7 µM and 58.8 µM, respectively. Also, the IC50 at ecClpXP [2] turned out to be 48.6 ± 1 µM; against ecClpP [3], 61 ± 1 µM.
